Organism: Rattus norvegicus
Assay: Open TG-GATES - Regimen: Single
Assay type: toxicity, organism-based, Sprague-Dawley
Design: regimen Single, gender Male, age 6 weeks
Conditions: in vivo, po, 1000 mg/kg, route gavage, dose level High; for APTT / Bas / Eos / Fbg / Hb / Ht / Lym / MCH / MCHC / MCV / Mono / Neu / PT / Plat / RBC / Ret / WBC: tissue Blood; for KIDNEY_L / KIDNEY_R / KIDNEY_TOTAL: tissue Kidney; for LIVER: tissue Liver; for A/G / ALP / ALT / AST / BUN / CRE / Ca / Cl / DBIL / GLC / IP / K / LDH / Na / PL / RALB / TBIL / TC / TG / TP / gamma-GTP: tissue Plasma

In the case of `CC[C@@H](CO)NCCN[C@@H](CC)CO` [ETHAMBUTOL], the TERMINAL_BW (3 h) is reported as 224.6 g, the APTT (3 h) is reported as 23.9 s and the Bas (3 h) is reported as 0%. For the same compound, the Eos (3 h) was 0.8%, the Fbg (3 h) was 301.6 mg/dL and the Hb (3 h) was 13.7 g/dL. The Ht (3 h) was 40.3%, the Lym (3 h) was 81.2% and the MCH (3 h) was 21.3 pg. It also gave an MCHC (3 h) of 33.9%, an MCV (3 h) of 62.7 fL and a Mono (3 h) of 2.2%. The Neu (3 h) was 15.4%, the PT (3 h) was 15.7 s and the Plat (3 h) was 126.2 x10_4/uL. For the same compound, the RBC (3 h) was 643.4 x10_4/ul, the Ret (3 h) was 7.5% and the WBC (3 h) was 67.7 x10_2/uL. For the same compound, the KIDNEY_L (3 h) was 1 g, the KIDNEY_R (3 h) was 1 g and the KIDNEY_TOTAL (3 h) was 2.1 g. For the same compound, the LIVER (3 h) was 9.9 g, the A/G (3 h) was 1.2 and the ALP (3 h) was 1529.4 IU/L. For the same compound, the ALT (3 h) was 41.8 IU/L, the AST (3 h) was 74.8 IU/L and the BUN (3 h) was 10.4 mg/dL. It also gave a CRE (3 h) of 0.1 mg/dL, a Ca (3 h) of 10.1 mg/dL and a Cl (3 h) of 106.8 meq/L. For the same compound, the DBIL (3 h) was 0 mg/dL, the GLC (3 h) was 173.8 mg/dL and the IP (3 h) was 8.7 mg/dL. For the same compound, the K (3 h) was 3.9 meq/L, the LDH (3 h) was 175.6 IU/L and the Na (3 h) was 141.6 meq/L. For the same compound, the PL (3 h) was 139 mg/dL, the RALB (3 h) was 3 g/dL and the TBIL (3 h) was 0.018 mg/dL. For the same compound, the TC (3 h) was 83.8 mg/dL, the TG (3 h) was 35.6 mg/dL and the TP (3 h) was 5.4 g/dL. For the same compound, the gamma-GTP (3 h) was 1.8 IU/L, the TERMINAL_BW (6 h) was 222.4 g and the APTT (6 h) was 22.3 s. It also gave a Bas (6 h) of 0%, an Eos (6 h) of 1% and a Fbg (6 h) of 308.6 mg/dL. It also gave a Hb (6 h) of 13.7 g/dL, a Ht (6 h) of 40.2% and a Lym (6 h) of 77.4%. The MCH (6 h) was 21.1 pg, the MCHC (6 h) was 34.1% and the MCV (6 h) was 61.9 fL. It also gave a Mono (6 h) of 2.8%, a Neu (6 h) of 18% and a PT (6 h) of 15.9 s. The Plat (6 h) was 123.5 x10_4/uL, the RBC (6 h) was 650.6 x10_4/ul and the Ret (6 h) was 7.1%. It also gave a WBC (6 h) of 70.3 x10_2/uL, a KIDNEY_L (6 h) of 1 g and a KIDNEY_R (6 h) of 1 g. For the same compound, the KIDNEY_TOTAL (6 h) was 2 g, the LIVER (6 h) was 9.5 g and the A/G (6 h) was 1.2. It also gave an ALP (6 h) of 1436.4 IU/L, an ALT (6 h) of 35.6 IU/L and an AST (6 h) of 67.4 IU/L. For the same compound, the BUN (6 h) was 9.8 mg/dL, the CRE (6 h) was 0.1 mg/dL and the Ca (6 h) was 10 mg/dL. For the same compound, the Cl (6 h) was 108 meq/L, the DBIL (6 h) was 0.002 mg/dL and the GLC (6 h) was 186.4 mg/dL. For the same compound, the IP (6 h) was 9.4 mg/dL, the K (6 h) was 4.1 meq/L and the LDH (6 h) was 176.4 IU/L. The Na (6 h) was 141.4 meq/L, the PL (6 h) was 134 mg/dL and the RALB (6 h) was 3 g/dL. It also gave a TBIL (6 h) of 0.03 mg/dL, a TC (6 h) of 75.4 mg/dL and a TG (6 h) of 43.2 mg/dL. The TP (6 h) was 5.5 g/dL, the gamma-GTP (6 h) was 1.4 IU/L and the TERMINAL_BW (9 h) was 217 g. For the same compound, the APTT (9 h) was 22.3 s, the Bas (9 h) was 0% and the Eos (9 h) was 0.2%. The Fbg (9 h) was 312 mg/dL, the Hb (9 h) was 13.9 g/dL and the Ht (9 h) was 40.3%. It also gave a Lym (9 h) of 79.2%, an MCH (9 h) of 22 pg and an MCHC (9 h) of 34.4%. For the same compound, the MCV (9 h) was 64.1 fL, the Mono (9 h) was 1.4% and the Neu (9 h) was 17.8%. For the same compound, the PT (9 h) was 16.3 s, the Plat (9 h) was 116.9 x10_4/uL and the RBC (9 h) was 630 x10_4/ul. It also gave a Ret (9 h) of 7.6%, a WBC (9 h) of 68.6 x10_2/uL and a KIDNEY_L (9 h) of 1 g. The KIDNEY_R (9 h) was 1 g, the KIDNEY_TOTAL (9 h) was 1.9 g and the LIVER (9 h) was 8.7 g. The A/G (9 h) was 1.1, the ALP (9 h) was 1464.4 IU/L and the ALT (9 h) was 35.8 IU/L. The AST (9 h) was 68.2 IU/L, the BUN (9 h) was 11.4 mg/dL and the CRE (9 h) was 0.1 mg/dL. It also gave a Ca (9 h) of 9.9 mg/dL, a Cl (9 h) of 108.2 meq/L and a DBIL (9 h) of 0.002 mg/dL. It also gave a GLC (9 h) of 177.8 mg/dL, an IP (9 h) of 8.8 mg/dL and a K (9 h) of 3.9 meq/L. The LDH (9 h) was 143 IU/L, the Na (9 h) was 140 meq/L and the PL (9 h) was 121 mg/dL. It also gave an RALB (9 h) of 3 g/dL, a TBIL (9 h) of 0.022 mg/dL and a TC (9 h) of 63.8 mg/dL. It also gave a TG (9 h) of 44.6 mg/dL, a TP (9 h) of 5.6 g/dL and a gamma-GTP (9 h) of 1.6 IU/L. For the same compound, the TERMINAL_BW (24 h) was 227.8 g, the APTT (24 h) was 22.5 s and the Bas (24 h) was 0%. It also gave an Eos (24 h) of 1%, a Fbg (24 h) of 306.4 mg/dL and a Hb (24 h) of 13.4 g/dL. It also gave a Ht (24 h) of 39.2%, a Lym (24 h) of 76% and an MCH (24 h) of 21.5 pg. The MCHC (24 h) was 34.3%, the MCV (24 h) was 62.9 fL and the Mono (24 h) was 3%. For the same compound, the Neu (24 h) was 18.6%, the PT (24 h) was 16.7 s and the Plat (24 h) was 118 x10_4/uL. For the same compound, the RBC (24 h) was 623.4 x10_4/ul, the Ret (24 h) was 6.9% and the WBC (24 h) was 94.9 x10_2/uL. For the same compound, the KIDNEY_L (24 h) was 1 g, the KIDNEY_R (24 h) was 1.1 g and the KIDNEY_TOTAL (24 h) was 2.1 g. The LIVER (24 h) was 10.5 g, the A/G (24 h) was 1.2 and the ALP (24 h) was 1508.4 IU/L. For the same compound, the ALT (24 h) was 46.8 IU/L, the AST (24 h) was 74 IU/L and the BUN (24 h) was 13.4 mg/dL. For the same compound, the CRE (24 h) was 0.1 mg/dL, the Ca (24 h) was 10.5 mg/dL and the Cl (24 h) was 105 meq/L. For the same compound, the DBIL (24 h) was 0.002 mg/dL, the GLC (24 h) was 183.8 mg/dL and the IP (24 h) was 8.3 mg/dL. For the same compound, the K (24 h) was 3.9 meq/L, the LDH (24 h) was 158 IU/L and the Na (24 h) was 139.4 meq/L. It also gave a PL (24 h) of 135.4 mg/dL, an RALB (24 h) of 3 g/dL and a TBIL (24 h) of 0.022 mg/dL. For the same compound, the TC (24 h) was 74.6 mg/dL, the TG (24 h) was 53.2 mg/dL and the TP (24 h) was 5.5 g/dL. For the same compound, the gamma-GTP (24 h) was 2 IU/L.

— ChEMBL document CHEMBL3885861, “Open TG-GATES”
